From the supplement of paper PMC13207355

Tests used:
Conditions in all cases: exposure time: 72 h
E31 [1] = patient-derived glioblastoma stem cells of proneural subtype; assay: surviving fraction (nuclei count normalised to DMSO); higher = more cells surviving (less toxic)
E34 [2] = patient-derived glioblastoma stem cells of proneural subtype; assay: as above
E28 [3] = patient-derived glioblastoma stem cells of classical subtype; assay: as above
FT3469 [4] = normal neural stem cell line; assay: as above
E57 [5] = patient-derived glioblastoma stem cells of mesenchymal subtype; assay: as above
E21 [6] = patient-derived glioblastoma stem cells of mesenchymal subtype; assay: as above
E13 [7] = patient-derived glioblastoma stem cells of classical subtype; assay: as above
E31 [8] = assay: phenotypic distance (Euclidean, principal components) from DMSO controls (arbitrary units); higher = stronger morphological change
E34 [9] = assay: as above
E28 [10] = assay: as above
FT3469 [11] = assay: as above
E57 [12] = assay: as above
E21 [13] = assay: as above
E13 [14] = assay: as above
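For phenotypic distance (Euclidean, principal components) from DMSO controls in this document: cell Painting imaging in 384-well plates, CellProfiler features reduced to at least 20 principal components, Euclidean distance versus same-plate DMSO vehicle wells (0.1% v/v), median over six images per well.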
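For surviving fraction (nuclei count normalised to DMSO) in this document: nuclei counted by high-content imaging of Hoechst-stained cells in laminin-coated 384-well plates, relative to 0.1% DMSO vehicle wells, with staurosporine as cell-death control.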

CC[n+]1c(/C=C/C=C2/N(C)c3ccccc3C2(C)C)sc2ccccc21
Conditions	phenotypic distance	surviving fraction
E13 [7], 4.1 nM	–	0.616
E13 [7], 12.3 nM	–	0.567
E13 [7], 37 nM	–	0.47
E13 [7], 111.1 nM	–	0.362
E13 [7], 333.3 nM	–	0.403
E13 [7], 1000 nM	–	0.361
E13 [7], 3000 nM	–	0.381
E13 [14], 4.1 nM	1.39	–
E13 [14], 12.3 nM	1.38	–
E13 [14], 37 nM	2.78	–
E13 [14], 111.1 nM	3.54	–
E13 [14], 333.3 nM	3.71	–
E13 [14], 1000 nM	3.71	–
E13 [14], 3000 nM	3.71	–
E21 [6], 4.1 nM	–	0.792
E21 [6], 12.3 nM	–	0.825
E21 [6], 37 nM	–	0.652
E21 [6], 111.1 nM	–	0.54
E21 [6], 333.3 nM	–	0.471
E21 [6], 1000 nM	–	0.462
E21 [6], 3000 nM	–	0.445
E21 [13], 4.1 nM	1.08	–
E21 [13], 12.3 nM	1.6	–
E21 [13], 37 nM	2.31	–
E21 [13], 111.1 nM	3.28	–
E21 [13], 333.3 nM	3.93	–
E21 [13], 1000 nM	3.44	–
E21 [13], 3000 nM	2.74	–
E28 [3], 4.1 nM	–	0.916
E28 [3], 12.3 nM	–	0.86
E28 [3], 37 nM	–	0.707
E28 [3], 111.1 nM	–	0.596
E28 [3], 333.3 nM	–	0.429
E28 [3], 1000 nM	–	0.42
E28 [3], 3000 nM	–	0.307
E28 [10], 4.1 nM	0.748	–
E28 [10], 12.3 nM	0.775	–
E28 [10], 37 nM	1.34	–
E28 [10], 111.1 nM	1.61	–
E28 [10], 333.3 nM	3.13	–
E28 [10], 1000 nM	2.8	–
E28 [10], 3000 nM	5.04	–
E31 [1], 4.1 nM	–	1.03
E31 [1], 12.3 nM	–	0.703
E31 [1], 37 nM	–	0.714
E31 [1], 111.1 nM	–	0.446
E31 [1], 333.3 nM	–	0.21
E31 [1], 1000 nM	–	0.229
E31 [1], 3000 nM	–	0.277
E31 [8], 4.1 nM	2.01	–
E31 [8], 12.3 nM	1.15	–
E31 [8], 37 nM	1.51	–
E31 [8], 111.1 nM	1.16	–
E31 [8], 333.3 nM	3.28	–
E31 [8], 1000 nM	4.43	–
E31 [8], 3000 nM	3.86	–
E34 [2], 4.1 nM	–	0.967
E34 [2], 12.3 nM	–	0.902
E34 [2], 37 nM	–	0.834
E34 [2], 111.1 nM	–	0.572
E34 [2], 333.3 nM	–	0.552
E34 [2], 1000 nM	–	0.591
E34 [2], 3000 nM	–	0.516
E34 [9], 4.1 nM	1.1	–
E34 [9], 12.3 nM	1.65	–
E34 [9], 37 nM	1.13	–
E34 [9], 111.1 nM	2.37	–
E34 [9], 333.3 nM	2.3	–
E34 [9], 1000 nM	2.55	–
E34 [9], 3000 nM	3.35	–
E57 [5], 4.1 nM	–	0.878
E57 [5], 12.3 nM	–	0.881
E57 [5], 37 nM	–	0.793
E57 [5], 111.1 nM	–	0.614
E57 [5], 333.3 nM	–	0.337
E57 [5], 1000 nM	–	0.324
E57 [5], 3000 nM	–	0.294
E57 [12], 4.1 nM	1.08	–
E57 [12], 12.3 nM	0.887	–
E57 [12], 37 nM	1.53	–
E57 [12], 111.1 nM	2.52	–
E57 [12], 333.3 nM	6.37	–
E57 [12], 1000 nM	5.7	–
E57 [12], 3000 nM	7.93	–
FT3469 [4], 4.1 nM	–	0.855
FT3469 [4], 12.3 nM	–	0.668
FT3469 [4], 37 nM	–	0.696
FT3469 [4], 111.1 nM	–	0.627
FT3469 [4], 333.3 nM	–	0.645
FT3469 [4], 1000 nM	–	0.622
FT3469 [4], 3000 nM	–	0.578
FT3469 [11], 4.1 nM	1.31	–
FT3469 [11], 12.3 nM	1.56	–
FT3469 [11], 37 nM	1.69	–
FT3469 [11], 111.1 nM	1.86	–
FT3469 [11], 333.3 nM	1.62	–
FT3469 [11], 1000 nM	3.78	–
FT3469 [11], 3000 nM	3.43	–
